Results from the supplement of paper PMC10307832.

What was measured:
Assay in all cases: relative viability (nuclei count vs DMSO), 5 days (fraction); higher = more cells survive
NCI-H1792 = system: NCI-H1792
Summary of the method: (§1)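 Lung cancer cell lines were pin-tool dosed in 1536-well plates on the day after seeding, with either a lone drug or a fixed anchor-drug dose plus five library-drug doses (not always all listed) in √10 steps. Nuclei were counted on 4× images after 5 days. Relative viability is the ratio of treated-well to vehicle-well nuclei counts, with each value a median of duplicate plates.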

HCC-827 = system: HCC-827
Summary of the method: as §1

COR-L 105 = system: COR-L 105
Summary of the method: as §1

NCI-H2009 = system: NCI-H2009
Summary of the method: as §1

CAL-12T = system: CAL-12T
Summary of the method: as §1

NCI-H2405 = system: NCI-H2405
Summary of the method: as §1

NCI-H2228 = system: NCI-H2228
Summary of the method: as §1

NCI-H1651 = system: NCI-H1651
Summary of the method: as §1

NCI-H1395 = system: NCI-H1395
Summary of the method: as §1

LCLC-97TM1 = system: LCLC-97TM1
Summary of the method: as §1

H3255 = system: H3255
Summary of the method: as §1

NCI-H23 = system: NCI-H23
Summary of the method: as §1

UMC-11 = system: UMC-11
Summary of the method: as §1

NCI-H650 = system: NCI-H650
Summary of the method: as §1

PC-3 [JPC-3] = system: PC-3 [JPC-3]
Summary of the method: as §1

SK-MES-1 = system: SK-MES-1
Summary of the method: as §1

LU99A = system: LU99A
Summary of the method: as §1

NCI-H2170 = system: NCI-H2170
Summary of the method: as §1

NCI-H661 = system: NCI-H661
Summary of the method: as §1

NCI-H2087 = system: NCI-H2087
Summary of the method: as §1

HARA = system: HARA
Summary of the method: as §1

HCC-15 = system: HCC-15
Summary of the method: as §1

201T = system: 201T
Summary of the method: as §1

## C=C1C(=O)O[C@@H](CCCCCCCC)[C@@H]1C(=O)O [C-75] + O=C(c1cc(Cc2n[nH]c(=O)c3ccccc23)ccc1F)N1CCN(C(=O)C2CC2)CC1 [Olaparib] (partner 8 µM)
NCI-H1792; first compound 0.08 µM
  relative viability: 0.384
NCI-H1792; first compound 0.253 µM
  relative viability: 0.438
NCI-H1792; first compound 0.8 µM
  relative viability: 0.462
NCI-H1792; first compound 2.53 µM
  relative viability: 0.306
NCI-H1792; first compound 8 µM
  relative viability: 0.431
HCC-827; first compound 0.253 µM
  relative viability: 0.622
HCC-827; first compound 0.8 µM
  relative viability: 0.595
HCC-827; first compound 8 µM
  relative viability: 0.657
COR-L 105; first compound 0.08 µM
  relative viability: 0.719
COR-L 105; first compound 0.253 µM
  relative viability: 0.75
COR-L 105; first compound 0.8 µM
  relative viability: 0.668
COR-L 105; first compound 2.53 µM
  relative viability: 0.62
COR-L 105; first compound 8 µM
  relative viability: 0.523
NCI-H2009; first compound 0.08 µM
  relative viability: 0.67
NCI-H2009; first compound 0.253 µM
  relative viability: 0.654
NCI-H2009; first compound 0.8 µM
  relative viability: 0.623
NCI-H2009; first compound 2.53 µM
  relative viability: 0.488
NCI-H2009; first compound 8 µM
  relative viability: 0.521
CAL-12T; first compound 0.08 µM
  relative viability: 0.774
CAL-12T; first compound 0.253 µM
  relative viability: 0.796
CAL-12T; first compound 0.8 µM
  relative viability: 0.788
CAL-12T; first compound 2.53 µM
  relative viability: 0.766
CAL-12T; first compound 8 µM
  relative viability: 0.793
NCI-H2405; first compound 0.08 µM
  relative viability: 0.808
NCI-H2405; first compound 0.253 µM
  relative viability: 0.734
NCI-H2405; first compound 0.8 µM
  relative viability: 0.879
NCI-H2405; first compound 2.53 µM
  relative viability: 0.803
NCI-H2405; first compound 8 µM
  relative viability: 0.852
NCI-H2228; first compound 0.08 µM
  relative viability: 0.709
NCI-H2228; first compound 0.253 µM
  relative viability: 0.897
NCI-H2228; first compound 0.8 µM
  relative viability: 0.494
NCI-H2228; first compound 2.53 µM
  relative viability: 0.543
NCI-H2228; first compound 8 µM
  relative viability: 0.414
NCI-H1651; first compound 0.08 µM
  relative viability: 0.196
NCI-H1651; first compound 0.253 µM
  relative viability: 0.206
NCI-H1651; first compound 0.8 µM
  relative viability: 0.189
NCI-H1651; first compound 2.53 µM
  relative viability: 0.173
NCI-H1651; first compound 8 µM
  relative viability: 0.167
NCI-H1395; first compound 0.08 µM
  relative viability: 0.423
NCI-H1395; first compound 0.253 µM
  relative viability: 0.433
NCI-H1395; first compound 2.53 µM
  relative viability: 0.465
NCI-H1395; first compound 8 µM
  relative viability: 0.511
LCLC-97TM1; first compound 0.08 µM
  relative viability: 0.349
LCLC-97TM1; first compound 0.253 µM
  relative viability: 0.402
LCLC-97TM1; first compound 0.8 µM
  relative viability: 0.494
LCLC-97TM1; first compound 2.53 µM
  relative viability: 0.338
LCLC-97TM1; first compound 8 µM
  relative viability: 0.303
H3255; first compound 0.08 µM
  relative viability: 0.629
H3255; first compound 0.253 µM
  relative viability: 0.581
H3255; first compound 0.8 µM
  relative viability: 0.583
H3255; first compound 2.53 µM
  relative viability: 0.537
H3255; first compound 8 µM
  relative viability: 0.573
NCI-H23; first compound 0.08 µM
  relative viability: 0.364
NCI-H23; first compound 0.253 µM
  relative viability: 0.334
NCI-H23; first compound 0.8 µM
  relative viability: 0.239
NCI-H23; first compound 2.53 µM
  relative viability: 0.555
NCI-H23; first compound 8 µM
  relative viability: 0.24
UMC-11; first compound 0.08 µM
  relative viability: 0.37
UMC-11; first compound 0.253 µM
  relative viability: 0.38
UMC-11; first compound 0.8 µM
  relative viability: 0.352
UMC-11; first compound 2.53 µM
  relative viability: 0.27
UMC-11; first compound 8 µM
  relative viability: 0.335
NCI-H650; first compound 0.08 µM
  relative viability: 0.397
NCI-H650; first compound 0.253 µM
  relative viability: 0.438
NCI-H650; first compound 0.8 µM
  relative viability: 0.457
NCI-H650; first compound 2.53 µM
  relative viability: 0.397
NCI-H650; first compound 8 µM
  relative viability: 0.4
PC-3 [JPC-3]; first compound 0.08 µM
  relative viability: 1.13
PC-3 [JPC-3]; first compound 0.253 µM
  relative viability: 1.02
PC-3 [JPC-3]; first compound 0.8 µM
  relative viability: 1.11
PC-3 [JPC-3]; first compound 2.53 µM
  relative viability: 1.03
PC-3 [JPC-3]; first compound 8 µM
  relative viability: 1.2
SK-MES-1; first compound 0.08 µM
  relative viability: 0.78
SK-MES-1; first compound 0.253 µM
  relative viability: 0.772
SK-MES-1; first compound 0.8 µM
  relative viability: 0.724
SK-MES-1; first compound 2.53 µM
  relative viability: 0.638
SK-MES-1; first compound 8 µM
  relative viability: 0.64
LU99A; first compound 0.08 µM
  relative viability: 0.255
LU99A; first compound 0.253 µM
  relative viability: 0.245
LU99A; first compound 0.8 µM
  relative viability: 0.25
LU99A; first compound 2.53 µM
  relative viability: 0.245
LU99A; first compound 8 µM
  relative viability: 0.205
NCI-H2170; first compound 0.08 µM
  relative viability: 0.594
NCI-H2170; first compound 0.253 µM
  relative viability: 0.633
NCI-H2170; first compound 0.8 µM
  relative viability: 0.541
NCI-H2170; first compound 2.53 µM
  relative viability: 0.647
NCI-H2170; first compound 8 µM
  relative viability: 0.627
NCI-H661; first compound 0.08 µM
  relative viability: 0.725
NCI-H661; first compound 0.253 µM
  relative viability: 0.805
NCI-H661; first compound 0.8 µM
  relative viability: 0.693
NCI-H661; first compound 2.53 µM
  relative viability: 0.66
NCI-H661; first compound 8 µM
  relative viability: 0.699
NCI-H2087; first compound 0.08 µM
  relative viability: 0.643
NCI-H2087; first compound 0.253 µM
  relative viability: 0.626
NCI-H2087; first compound 0.8 µM
  relative viability: 0.584
NCI-H2087; first compound 2.53 µM
  relative viability: 0.468
NCI-H2087; first compound 8 µM
  relative viability: 0.423
HARA; first compound 0.08 µM
  relative viability: 0.76
HARA; first compound 0.253 µM
  relative viability: 0.749
HARA; first compound 0.8 µM
  relative viability: 1.04
HARA; first compound 2.53 µM
  relative viability: 0.803
HARA; first compound 8 µM
  relative viability: 0.715
HCC-15; first compound 0.08 µM
  relative viability: 0.686
HCC-15; first compound 0.253 µM
  relative viability: 0.752
HCC-15; first compound 0.8 µM
  relative viability: 0.672
HCC-15; first compound 2.53 µM
  relative viability: 0.612
HCC-15; first compound 8 µM
  relative viability: 0.785
201T; first compound 0.08 µM
  relative viability: 0.812
201T; first compound 0.253 µM
  relative viability: 0.897
201T; first compound 0.8 µM
  relative viability: 0.84
201T; first compound 2.53 µM
  relative viability: 0.605
201T; first compound 8 µM
  relative viability: 0.87
